PMC3001897, “High-Throughput Chemical Screen Identifies a Novel Potent Modulator of Cellular Circadian Rhythms and Reveals CKIα as a Clock Regulatory Kinase” (PLoS Biology, 2010)

How the values were obtained:
CKIα = CKIα (Homo sapiens, UniProt P48729); experiment: Cell-based PER1 degradation assay (PER1-LUC), CKIα
Experimental: (§1) HEK293T cells (6.0×10^4 cells) were reverse transfected on 96-well white solid-bottom plates by Lipofectamine 2000 with 40 ng each of expression vectors for C-terminally luciferase-fused PER1 (in p3XFLAG-CMV-14) and N-terminally HA-tagged kinase (in p3XFLAG-CMV-14). For luciferase (in p3XFLAG-CMV-14), 2 ng of expression vector with 38 ng of empty vector was used because of its efficient expression. After 48 h, the medium was supplemented with luciferin (final 1 mM) and HEPES-NaOH (pH 7.2; final 10 mM). After 1 h, cycloheximide (final 20 µg/ml) was added to the medium, and the plate was covered with optically clear film. The luminescence was recorded every 10 min by using the Tecan luminometer. Half-life was obtained by using Prism software (GraphPad Software).

[1] = system: protein kinases (CKIδ, CKIα, ERK2, CDK7, p38α; ERK1); experiment: Affinity chromatography with compound 3 resin and U2OS cell lysate; type: binding, human
Experimental: U2OS cells kept in confluence (2×10^8 cells) were collected with ice-cold PBS and homogenized by using Dounce homogenizer in 5 ml of lysis buffer (25 mM MOPS, 15 mM EGTA, 15 mM MgCl2, 1 mM DTT, 60 mM β-glycerophosphate, 15 mM p-nitrophenyl phosphate, 1 mM Na3VO4, 1 mM NaF, 1 mM phenyl phosphate, 10 µg/ml leupeptin, 10 µg/ml aprotinin, 10 µg/ml soybean trypsin inhibitor, 100 µM benzamidine, pH7.2). The homogenate was sonicated and centrifuged (16,000×g) at 4°C for 20 min. The resulting supernatant was split into two, and each portion was incubated with or without 100 µM longdaysin (final 0.1% DMSO) at 4°C for 10 min (Figure 2C). Then, 120 µl of compound 3 [50% slurry in bead buffer (50 mM Tris, 250 mM NaCl, 5 mM EDTA, 5 mM EGTA, 0.1% NP-40, 5 mM NaF, 10 µg/ml leupeptin, 10 µg/ml aprotinin, 10 µg/ml soybean trypsin inhibitor, 100 µM benzamidine, pH 7.4)] was added to the mixture and incubated at 4°C for 1 h with rotation. […]
All gel bands were subjected to LC-MS/MS analysis as described previously. Tandem MS data were analyzed using Sequest (ThermoFinnigan, San Jose, CA; Version 3.0). […]
Scaffold (version Scaffold_2_05_00, Proteome Software Inc., Portland, OR) was used to validate MS/MS based peptide and protein identifications. […] Crude differential quantitation of proteins identified in both pulldown experiments was performed by comparing the number of assigned peptides.

p38α = p38α (Homo sapiens, UniProt Q16539); experiment: In vitro kinase assay, p38α (unpublished data); type: biochemical
ERK2 = molecular target: T1, ERK2 (Homo sapiens, UniProt P28482); experiment: In vitro kinase assay, ERK2; type: biochemical
T1 construct: purchased Millipore 14-550
Experimental: The CKIδ, CKIα, CDK7, and ERK2 kinase assays were performed on 384-well plates (10 µl volume). The reaction mixture was as follows: for CKIδ, 2 ng/µl CKIδ (Millipore, 14-520), 50 µM peptide substrate RKKKAEpSVASLTSQCSYSS corresponding to human PER2 Lys659-Ser674 [47], and CKI buffer (40 mM Tris, 10 mM MgCl2, 0.5 mM DTT, 0.1 mg/ml BSA, pH 7.5); for CKIα, 1 ng/µl CKIα (Invitrogen, PV3850), 50 µM CKI peptide substrate (Anaspec, 60547-1), and CKI buffer; for CDK7, 5 ng/µl CDK7 (Millipore, 14-476), 100 µM Cdk7/9 peptide substrate (Millipore, 12-526), and CKI buffer; for ERK2, 1.5 ng/µl ERK2 (Millipore, 14-550), 0.8 µg/µl MBP (Millipore, 13-104), and ERK buffer (50 mM Tris, 10 mM MgCl2, 0.5 mM DTT, 1 mM EGTA, pH 7.5). Five hundred nl of compound was added to the mixture (final 5% DMSO), and the reaction was started by adding ATP (final 5 µM). After incubation at 30°C for 3h, 10 µl of Kinase-Glo Luminescent Kinase Assay reagent (Promega) was added, and the luminescence was detected to determine remaining ATP amount. […] IC50 value was obtained by using Prism software (GraphPad Software).

CKIδ = CKIδ (Homo sapiens, UniProt P48730); experiment: Cell-based PER1 degradation assay (PER1-LUC), CKIδ
Experimental: as §1

[2] = HEK293T cells, 24 h treatment, from Figure 4E

Chain of CKIδ (P48730 whole entry, species assumed): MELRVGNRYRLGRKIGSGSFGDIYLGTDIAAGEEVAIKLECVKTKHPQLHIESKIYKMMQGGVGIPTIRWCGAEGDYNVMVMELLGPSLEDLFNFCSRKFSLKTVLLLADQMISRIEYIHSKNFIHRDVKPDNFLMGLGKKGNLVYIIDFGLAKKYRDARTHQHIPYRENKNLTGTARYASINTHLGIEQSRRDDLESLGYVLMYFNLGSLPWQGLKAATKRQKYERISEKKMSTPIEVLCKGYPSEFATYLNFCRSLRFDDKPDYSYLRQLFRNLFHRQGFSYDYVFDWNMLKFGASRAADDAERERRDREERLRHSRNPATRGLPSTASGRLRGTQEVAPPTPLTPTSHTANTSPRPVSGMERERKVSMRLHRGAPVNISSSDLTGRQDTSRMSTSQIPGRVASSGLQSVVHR
Chain of CKIα (P48729 whole entry, the tested form may be a part): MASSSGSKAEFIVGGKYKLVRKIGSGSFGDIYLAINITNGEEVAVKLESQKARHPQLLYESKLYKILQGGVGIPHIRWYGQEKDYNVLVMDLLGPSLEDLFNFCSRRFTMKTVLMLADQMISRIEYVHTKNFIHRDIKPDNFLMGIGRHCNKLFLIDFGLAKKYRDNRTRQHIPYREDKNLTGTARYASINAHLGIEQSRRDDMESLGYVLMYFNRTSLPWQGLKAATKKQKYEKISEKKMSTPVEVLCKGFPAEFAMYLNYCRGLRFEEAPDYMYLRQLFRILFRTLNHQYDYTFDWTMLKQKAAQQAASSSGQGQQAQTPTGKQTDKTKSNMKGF
T1 sequence (P28482 whole entry, species assumed): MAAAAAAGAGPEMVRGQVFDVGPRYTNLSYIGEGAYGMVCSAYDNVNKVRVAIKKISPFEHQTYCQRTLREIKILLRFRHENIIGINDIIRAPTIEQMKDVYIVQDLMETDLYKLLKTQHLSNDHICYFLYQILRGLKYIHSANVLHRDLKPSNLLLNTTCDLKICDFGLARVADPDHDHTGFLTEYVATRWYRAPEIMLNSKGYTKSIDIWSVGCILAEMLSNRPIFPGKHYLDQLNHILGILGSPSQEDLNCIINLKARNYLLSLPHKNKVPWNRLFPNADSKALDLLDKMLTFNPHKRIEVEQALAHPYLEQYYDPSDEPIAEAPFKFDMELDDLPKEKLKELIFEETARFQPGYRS
Chain of p38α (Q16539 whole entry): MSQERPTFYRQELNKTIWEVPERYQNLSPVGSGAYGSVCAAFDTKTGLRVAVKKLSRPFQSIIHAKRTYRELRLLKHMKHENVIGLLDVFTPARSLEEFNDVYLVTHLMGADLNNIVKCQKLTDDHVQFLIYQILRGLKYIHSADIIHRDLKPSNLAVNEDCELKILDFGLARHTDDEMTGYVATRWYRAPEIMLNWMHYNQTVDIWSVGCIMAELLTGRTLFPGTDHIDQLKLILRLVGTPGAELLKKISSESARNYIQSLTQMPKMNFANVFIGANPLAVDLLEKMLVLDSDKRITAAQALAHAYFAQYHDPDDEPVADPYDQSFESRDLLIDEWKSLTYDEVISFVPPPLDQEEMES

CC(C)n1cnc2c(NCc3cccc(C(F)(F)F)c3)ncnc21 [Longdaysin, 9-isopropyl-N-(3-(trifluoromethyl)benzyl)-9H-purin-6-amine]
EC50 (CKIα; [2]): 9.2 µM | Effect on CKIα-dependent degradation of PER1 (CKIα; HEK293T, 0 to 20 µM, 24 h): inhibited by longdaysin treatment in a dose-dependent manner | Binding of protein kinases to the affinity resin on competition ([1]; 100 µM free longdaysin as soluble competitor): decreased binding in the presence of free longdaysin | Signal reduction of listed binding proteins upon competition ([1]; 100 µM free longdaysin, tandem MS spectra): ≥ 3 fold | Effect on p38α activity (p38α): much less effect | IC50 (ERK2; ATP 5 µM, from Figure 2E): 52 µM | Inhibition of ERK2 in vitro (ERK2; range of 3 to 24 µM): considerably inhibited ERK2 in vitro | EC50 (CKIδ; [2]): 9.7 µM | Effect on CKIδ-dependent degradation of PER1 (CKIδ; HEK293T, 0 to 20 µM, 24 h): inhibited by longdaysin treatment in a dose-dependent manner
